In patent US8003649B2 (AstraZeneca AB, priority 2007, dated 2011):

molecular target: T1, Androgen Receptor (AR) (Homo sapiens, UniProt P10275, T878A); assay: LNCaP Androgen Receptor Down-regulation Cell Assay (immunofluorescence end point); assay type: cell-based; conditions: LNCaP prostate carcinoma cells, compound incubation 20-22 hours, 50% reduction of the AR signal; read-out: Androgen Receptor Down-regulation Assay (a) IC50/μM
T1 construct: cell based immuno-fluorescence assay using the LNCaP prostate epithelial cell line; endogenous in cells; host or cells: LNCaP clone FGC (ATCC CRL-1740)
T1 sequence (P10275 1-920 T878A): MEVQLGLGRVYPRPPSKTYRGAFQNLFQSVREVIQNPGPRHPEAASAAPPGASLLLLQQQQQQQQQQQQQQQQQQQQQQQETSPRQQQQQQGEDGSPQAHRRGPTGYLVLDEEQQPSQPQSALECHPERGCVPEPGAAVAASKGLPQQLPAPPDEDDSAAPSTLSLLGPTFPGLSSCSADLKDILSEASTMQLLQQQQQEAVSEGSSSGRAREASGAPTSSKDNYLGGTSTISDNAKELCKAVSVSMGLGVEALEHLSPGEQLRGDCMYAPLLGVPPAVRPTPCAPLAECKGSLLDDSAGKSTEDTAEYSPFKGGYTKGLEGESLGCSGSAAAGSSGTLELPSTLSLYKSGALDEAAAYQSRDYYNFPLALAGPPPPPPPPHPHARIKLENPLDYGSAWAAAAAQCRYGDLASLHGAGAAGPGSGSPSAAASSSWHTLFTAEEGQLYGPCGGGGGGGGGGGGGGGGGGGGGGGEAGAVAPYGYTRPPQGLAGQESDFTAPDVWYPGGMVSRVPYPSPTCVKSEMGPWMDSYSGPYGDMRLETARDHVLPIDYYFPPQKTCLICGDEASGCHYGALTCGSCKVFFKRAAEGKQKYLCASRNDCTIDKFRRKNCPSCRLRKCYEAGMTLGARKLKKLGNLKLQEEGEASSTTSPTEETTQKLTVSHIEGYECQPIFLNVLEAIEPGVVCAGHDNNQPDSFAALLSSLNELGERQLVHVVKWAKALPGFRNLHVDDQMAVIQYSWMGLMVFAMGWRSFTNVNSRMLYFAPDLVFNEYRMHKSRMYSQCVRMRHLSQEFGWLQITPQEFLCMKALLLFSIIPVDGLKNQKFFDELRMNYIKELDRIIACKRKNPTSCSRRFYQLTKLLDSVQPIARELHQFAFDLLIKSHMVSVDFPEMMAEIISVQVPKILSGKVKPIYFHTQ
Summary of the method: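 LNCaP cells in medium with 5% charcoal-stripped FBS were plated overnight, then treated with a compound dilution series for 20-22 h at 37° C. After fixation, permeabilisation and immunostaining, AR-associated green fluorescence was quantified by laser-scanning microplate cytometry; AR down-regulation expressed as IC50 from fitted dose-response curves.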

Row | Structure (SMILES) | DC50 [µM]
1 | O=C(NCCN1CCOCC1)c1ccc(C2CCN(c3ccc4nnc(C(F)(F)F)n4n3)CC2)cc1 [Example 638, N-(2-morpholin-4-ylethyl)-4-[1-[3-(trifluoromethyl)[1,2,4]triazolo[4,3-b]pyridazin-6-yl]piperidin-4-yl]benzamide] | 0.9
2 | Cc1cc(CNC(=O)c2ccc(C3CCN(c4ccc5nnc(C(F)(F)F)n5n4)CC3)cc2)no1 [Example 640] | 0.92
3 | CN1CCC(NC(=O)c2ccc(C3CCN(c4ccc5nnc(C(F)(F)F)n5n4)CC3)cc2)CC1 [Example 641] | 1.4
4 | CN1CCN(CCNC(=O)c2ccc(C3CCN(c4ccc5nnc(C(F)(F)F)n5n4)CC3)cc2)CC1 [Example 642] | 1.4
5 | CN(CCO)C(=O)c1cccc(C2CCN(c3ccc4nnc(C(F)(F)F)n4n3)CC2)c1 [Example 643] | 6
6 | O=C(NCCN1CCCC1)c1cccc(C2CCN(c3ccc4nnc(C(F)(F)F)n4n3)CC2)c1 [Example 644] | 1.5
7 | CN1CCN(C(=O)c2cccc(C3CCN(c4ccc5nnc(C(F)(F)F)n5n4)CC3)c2)CC1 [Example 645] | 2.3
8 | O=C(c1cccc(C2CCN(c3ccc4nnc(C(F)(F)F)n4n3)CC2)c1)N1CCNCC1 [Example 646] | 6.1
9 | CN(C)C(=O)c1cccc(C2CCN(c3ccc4nnc(C(F)(F)F)n4n3)CC2)c1 [Example 647] | 1.7
10 | O=C(c1cccc(C2CCN(c3ccc4nnc(C(F)(F)F)n4n3)CC2)c1)N1CCOCC1 [Example 648] | 2.1
11 | CNC(=O)c1cccc(C2CCN(c3ccc4nnc(C(F)(F)F)n4n3)CC2)c1 [Example 649] | 2.3
12 | CN1CCC(NC(=O)c2cccc(C3CCN(c4ccc5nnc(C(F)(F)F)n5n4)CC3)c2)CC1 [Example 651] | 1.9
13 | FC(F)(F)c1ccccc1OC1CCN(c2ccc3nnc(C(F)(F)F)n3n2)CC1 [Example 653] | 1
14 | N#Cc1ccccc1OC1CCN(c2ccc3nnc(C(F)(F)F)n3n2)CC1 [Example 654] | 2.6
15 | CC(=O)Nc1cccc(C2CCN(c3ccc4nnc(C(F)(F)F)n4n3)CC2)c1 [Example 655, N-[3-[1-[3-(trifluoromethyl)[1,2,4]triazolo[4,3-b]pyridazin-6-yl]piperidin-4-yl]phenyl]acetamide] | 1.1
16 | CN1CCN(CCCC(=O)Nc2cccc(C3CCN(c4ccc5nnc(C(F)(F)F)n5n4)CC3)c2)CC1 [Example 659, 4-(4-methylpiperazin-1-yl)-N-[3-[1-[3-(trifluoromethyl)-[1,2,4]triazolo[4,3-b]pyridazin-6-yl]piperidin-4-yl]phenyl]butanamide] | 1
17 | O=C(CCCN1CCCC1)Nc1cccc(C2CCN(c3ccc4nnc(C(F)(F)F)n4n3)CC2)c1 [Example 660] | 0.63
18 | O=C(CCCN1CCOCC1)Nc1cccc(C2CCN(c3ccc4nnc(C(F)(F)F)n4n3)CC2)c1 [Example 661] | 0.65

Row | Structure (SMILES) | DC50 [µM]
19 | COCCCC(=O)Nc1cccc(C2CCN(c3ccc4nnc(C(F)(F)F)n4n3)CC2)c1 [Example 662, 4-methoxy-N-[3-[1-(3-(trifluoromethyl)-[1,2,4]triazolo[4,3-b]pyridazin-6-yl)piperidin-4-yl]phenyl]butanamide] | 5.4
20 | CN1CCC(C(=O)Nc2ccc(C3CCN(c4ccc5nnc(C(F)(F)F)n5n4)CC3)cc2)CC1 [Example 663] | 2.7
21 | COCC(=O)Nc1ccc(C2CCN(c3ccc4nnc(C(F)(F)F)n4n3)CC2)cc1 [Example 664] | 3.6
22 | CN1CCN(CCCC(=O)Nc2ccc(C3CCN(c4ccc5nnc(C(F)(F)F)n5n4)CC3)cc2)CC1 [Example 666] | 0.94
23 | O=C(CCCN1CCCC1)Nc1ccc(C2CCN(c3ccc4nnc(C(F)(F)F)n4n3)CC2)cc1 [Example 667] | 1
24 | O=C(CCCN1CCOCC1)Nc1ccc(C2CCN(c3ccc4nnc(C(F)(F)F)n4n3)CC2)cc1 [Example 668] | 1.1
25 | COCCCC(=O)Nc1ccc(C2CCN(c3ccc4nnc(C(F)(F)F)n4n3)CC2)cc1 [Example 669] | 0.6
26 | CN(C)CCCOc1cccc(C2CCN(c3ccc4nnc(C(F)(F)F)n4n3)CC2)c1 [Example 670] | 0.67
27 | FC(F)(F)c1nnc2ccc(N3CCC(c4cccc(OCCN5CCCC5)c4)CC3)nn12 [Example 671] | 1.6
28 | FC(F)(F)c1nnc2ccc(N3CCC(c4cccc(OCCN5CCNCC5)c4)CC3)nn12 [Example 672] | 0.58
29 | FC(F)(F)c1nnc2ccc(N3CCC(c4cccc(OCCCN5CCNCC5)c4)CC3)nn12 [Example 673] | 0.73
30 | Cc1cc(COc2cccc(C3CCN(c4ccc5nnc(C(F)(F)F)n5n4)CC3)c2)no1 [Example 674] | 1.1
31 | CN(C)CCOc1cccc(C2CCN(c3ccc4nnc(C(F)(F)F)n4n3)CC2)c1 [Example 675] | 1.5
32 | FC(F)(F)c1nnc2ccc(N3CCC(c4cccc(OCCN5CCOCC5)c4)CC3)nn12 [Example 676] | 0.56
33 | CN1CCC(Oc2cccc(C3CCN(c4ccc5nnc(C(F)(F)F)n5n4)CC3)c2)CC1 [Example 677] | 4.5
34 | FC(F)(F)c1nnc2ccc(N3CCC(c4cccc(OCc5cnco5)c4)CC3)nn12 [Example 680] | 0.6
35 | Cn1nccc1CCOc1cccc(C2CCN(c3ccc4nnc(C(F)(F)F)n4n3)CC2)c1 [Example 682] | 0.58
36 | COCCOc1cccc(C2CCN(c3ccc4nnc(C(F)(F)F)n4n3)CC2)c1 [Example 684] | 0.69

More lines, now with the values ahead:

Row | DC50 [µM] | Structure (SMILES)
37 | 5.7 | CN(CCO)C(=O)c1cccc(OC2CCN(c3ccc4nnc(C(F)(F)F)n4n3)CC2)c1 [Example 685]
38 | 4.2 | O=C(NCCN1CCCC1)c1cccc(OC2CCN(c3ccc4nnc(C(F)(F)F)n4n3)CC2)c1 [Example 686]
39 | 3.8 | CN1CCN(C(=O)c2cccc(OC3CCN(c4ccc5nnc(C(F)(F)F)n5n4)CC3)c2)CC1 [Example 687]
40 | 6.6 | O=C(c1cccc(OC2CCN(c3ccc4nnc(C(F)(F)F)n4n3)CC2)c1)N1CCNCC1 [Example 688]
41 | 4.1 | COCCNC(=O)c1cccc(OC2CCN(c3ccc4nnc(C(F)(F)F)n4n3)CC2)c1 [Example 689]
42 | > 28 | O=C(c1cccc(OC2CCN(c3ccc4nnc(C(F)(F)F)n4n3)CC2)c1)N1CC[C@@H](O)C1 [Example 691]
43 | 4.2 | O=C(c1cccc(OC2CCN(c3ccc4nnc(C(F)(F)F)n4n3)CC2)c1)N1CCCC1 [Example 692]
44 | 2.3 | O=C(c1cccc(OC2CCN(c3ccc4nnc(C(F)(F)F)n4n3)CC2)c1)N1CCOCC1 [Example 693]
45 | 3.2 | CNC(=O)c1cccc(OC2CCN(c3ccc4nnc(C(F)(F)F)n4n3)CC2)c1 [Example 694]
46 | 3.3 | CCNC(=O)c1cccc(OC2CCN(c3ccc4nnc(C(F)(F)F)n4n3)CC2)c1 [Example 695]
47 | 4.2 | CN(C)CCNC(=O)c1cccc(OC2CCN(c3ccc4nnc(C(F)(F)F)n4n3)CC2)c1 [Example 696]
48 | > 22 | O=C(NCCO)c1cccc(OC2CCN(c3ccc4nnc(C(F)(F)F)n4n3)CC2)c1 [Example 697]
49 | 5.6 | O=C(NCCN1CCOCC1)c1cccc(OC2CCN(c3ccc4nnc(C(F)(F)F)n4n3)CC2)c1 [Example 698]
50 | 2.1 | COCCN(C)C(=O)c1cccc(OC2CCN(c3ccc4nnc(C(F)(F)F)n4n3)CC2)c1 [Example 699]
51 | 7.1 | O=C(c1cccc(OC2CCN(c3ccc4nnc(C(F)(F)F)n4n3)CC2)c1)N1CC[C@H](O)C1 [Example 700]
52 | > 12 | Cc1cc(CNC(=O)c2cccc(OC3CCN(c4ccc5nnc(C(F)(F)F)n5n4)CC3)c2)no1 [Example 702]
53 | 5.5 | CN1CCC(NC(=O)c2cccc(OC3CCN(c4ccc5nnc(C(F)(F)F)n5n4)CC3)c2)CC1 [Example 703]
54 | 4.2 | CN1CCN(CCNC(=O)c2cccc(OC3CCN(c4ccc5nnc(C(F)(F)F)n5n4)CC3)c2)CC1 [Example 704]
55 | 5.3 | O=C(NCCn1cccn1)c1cccc(OC2CCN(c3ccc4nnc(C(F)(F)F)n4n3)CC2)c1 [Example 705]
56 | 2.9 | Cn1ccc(CNC(=O)c2cccc(OC3CCN(c4ccc5nnc(C(F)(F)F)n5n4)CC3)c2)n1 [Example 706]
57 | 7.9 | O=C(NCc1cocn1)c1cccc(OC2CCN(c3ccc4nnc(C(F)(F)F)n4n3)CC2)c1 [Example 707]
58 | 6.2 | CN1CCN(CC(=O)Nc2ccc(C3CCN(c4ccc5nnc(C(F)(F)F)n5n4)CC3)cc2)CC1 [Example 708, 2-(4-methylpiperazin-1-yl)-N-[4-[1-[3-(trifluoromethyl)[1,2,4]triazolo[4,3-b]pyridazin-6-yl]piperidin-4-yl]phenyl]acetamide]
